Results reported in patent US20200247800A1, “SUBSTITUTED BICYCLIC HETEROCYCLIC COMPOUNDS AS NADPH OXIDASE INHIBITORS” (Glenmark Pharmaceuticals S.A., priority 2017, published 2020).
Counter-ions that a name gives are not always drawn.

Target: T1, human NOX4 (Homo sapiens, UniProt Q9NPH5)
T1 construct: expressed in transfected cells; membrane fraction used
T1 sequence (Q9NPH5 1-578): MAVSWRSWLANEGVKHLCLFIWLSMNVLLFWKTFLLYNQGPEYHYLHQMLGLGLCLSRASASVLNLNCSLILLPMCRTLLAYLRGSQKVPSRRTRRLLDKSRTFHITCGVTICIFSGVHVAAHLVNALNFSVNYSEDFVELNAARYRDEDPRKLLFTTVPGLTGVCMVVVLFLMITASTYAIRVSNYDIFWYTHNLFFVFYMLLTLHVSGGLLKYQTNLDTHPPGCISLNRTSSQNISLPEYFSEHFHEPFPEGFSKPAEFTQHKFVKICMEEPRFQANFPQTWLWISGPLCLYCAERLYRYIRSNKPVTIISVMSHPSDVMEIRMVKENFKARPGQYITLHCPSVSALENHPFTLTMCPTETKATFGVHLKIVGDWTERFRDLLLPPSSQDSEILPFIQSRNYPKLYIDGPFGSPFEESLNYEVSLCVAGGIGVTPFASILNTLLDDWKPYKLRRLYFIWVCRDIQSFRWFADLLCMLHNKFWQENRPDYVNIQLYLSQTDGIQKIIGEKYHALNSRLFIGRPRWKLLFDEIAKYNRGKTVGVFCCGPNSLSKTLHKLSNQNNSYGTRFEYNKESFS
T1 sequence (P13498 1-195 partner): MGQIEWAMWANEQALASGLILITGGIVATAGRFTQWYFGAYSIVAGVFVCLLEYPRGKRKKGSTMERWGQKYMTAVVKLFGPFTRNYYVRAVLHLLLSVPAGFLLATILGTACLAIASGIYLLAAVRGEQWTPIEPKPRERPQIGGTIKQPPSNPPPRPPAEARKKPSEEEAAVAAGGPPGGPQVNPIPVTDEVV
Assay: Cell free membrane based in vitro NOX4 assay: H2O2 production by membranes expressing human NOX4, measured with Amplex Red
Assay type: biochemical
Conditions: for Percentage inhibition at 1.0 μM / inhibition at 1 µM: 1.0 μM compound; for Percentage inhibition at 10.0 μM / inhibition at 10 µM: 10.0 μM compound; for IC50: class symbols; for inhibition at 1 µM: read-out: Percentage inhibition at 1.0 μM; for inhibition at 10 µM: read-out: Percentage inhibition at 10.0 μM
Procedure, shortened: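 Membranes from HEK cells stably overexpressing human NOX4 were preincubated 20 min with inhibitor in pH 7.4 HEPES buffer containing HRP and Amplex Red, then NADPH was added. H2O2 was followed for 10 min by fluorescence (ex 544/em 590 nm). IC50 from nonlinear regression of % maximal uninhibited response.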

Row | Structure (SMILES) | IC50 [µM] | inhibition at 1 µM [%] | inhibition at 10 µM [%] | other results
1 | Cn1nc(CN2CCN(CC(F)(F)F)CC2)c2c(=O)c(O)c(-c3c(F)cccc3F)[nH]c21 [Example 220, 6-(2,6-Difluorophenyl)-5-hydroxy-1-methyl-3-((4-(2,2,2-trifluoroethyl)piperazin-1-yl)methyl)-1H-pyrazolo[3,4-b]pyridin-4(7H)-one] | > 0.15 |  |  | Percentage inhibition at 1.0 μM: 87.57%; Percentage inhibition at 10.0 μM: 100.00%
2 | Cn1nc(CN2CCN(CCF)CC2)c2c(=O)c(O)c(-c3c(F)cccc3F)[nH]c21 [Example 221, 6-(2,6-Difluorophenyl)-3-((4-(2-fluoroethyl)piperazin-1-yl)methyl)-5-hydroxy-1-methyl-1H-pyrazolo[3,4-b]pyridin-4(7H)-one] | > 0.15 | 84 | 97.1 | 
3 | CC(C)N1CCN(Cc2nn(C)c3[nH]c(-c4c(F)cccc4F)c(O)c(=O)c23)C[C@@H]1C [Example 222, (S)-6-(2,6-Difluorophenyl)-5-hydroxy-3-((4-isopropyl-3-methylpiperazin-1-yl)methyl)-1-methyl-1H-pyrazolo[3,4-b]pyridin-4(7H)-one] | > 0.15 | 86.2 | 92.7 | 
4 | CC(C)N1CCN(Cc2nn(C)c3[nH]c(-c4c(F)cccc4F)c(O)c(=O)c23)C[C@H]1C [Example 223, (R)-6-(2,6-Difluorophenyl)-5-hydroxy-3-((4-isopropyl-3-methylpiperazin-1-yl)methyl)-1-methyl-1H-pyrazolo[3,4-b]pyridin-4(7H)-one] | 0.1 to 0.15 | 89.7 | 96.6 | 
5 | Cn1nc(C(F)(F)F)c2c(=O)c(O)c(-c3ccc(O)cc3)[nH]c21 [Example 225, 5-hydroxy-6-(4-hydroxyphenyl)-1-methyl-3-(trifluoromethyl)-1,7-dihydro-4H-pyrazolo[3,4-b]pyridin-4-one] | > 0.15 | 80.1 | 90.7 | 
6 | CC(=O)Oc1c(-c2c(F)cccc2F)[nH]c2c(c(C)nn2C)c1=O [Example 226] |  | 22.9 | 66.9 | 
7 | Cc1c2oc(-c3ccccc3Cl)c(O)c(=O)c2nn1C [Example 227, 5-(2-chlorophenyl)-6-hydroxy-2,3-dimethylpyrano[3,2-c]pyrazol-7(2H)-one] |  | 6.03 | 16 | 
8 | Cc1c2oc(-c3ccccc3Cl)c(O)c(=O)c2nn1C(C)C [Example 228, 5-(2-Chlorophenyl)-6-hydroxy-3-methyl-2-(propan-2-yl)pyrano[3,2-c]pyrazol-7(2H)-one] |  | 8.66 | 11 | 
9 | CCn1nc2c(=O)c(O)c(-c3ccccc3Cl)oc2c1C [Example 229, 5-(2-Chlorophenyl)-2-ethyl-6-hydroxy-3-methylpyrano[3,2-c]pyrazol-7(2H)-one] |  | 4.45 | 5.81 | 
10 | Cc1nn(C)c2oc(-c3ccccc3Cl)c(O)c(=O)c12 [Example 230, 6-(2-chlorophenyl)-5-hydroxy-1,3-dimethylpyrano[2,3-c]pyrazol-4(1H)-one] |  | 3.28 | 5.83 | 
11 | Cc1nn(-c2ccc(F)cc2)c2oc(-c3ccccc3Cl)c(O)c(=O)c12 [Example 231, 6-(2-Chlorophenyl)-1-(4-fluorophenyl)-5-hydroxy-3-methylpyrano[2,3-c]pyrazol-4(1H)-one] |  | 12.5 | 9.39 | 
12 | Cc1nn(CCCO)c2[nH]c(-c3c(F)cccc3F)c(O)c(=O)c12 [Example 232, 6-(2,6-Difluorophenyl)-5-hydroxy-1-(3-hydroxypropyl)-3-methyl-1H-pyrazolo[3,4-b]pyridin-4(7H)-one] | 0.05 to 0.1 | 85.1 | 84.8 | 
13 | COc1c(-c2ccccc2Cl)[nH]c2c(c(C)nn2C)c1=O [Example 233, 6-(2-chlorophenyl)-5-methoxy-1,3-dimethyl-1H-pyrazolo[3,4-b]pyridin-4(7H)-one] |  | 32.8 | 69.7 | 
14 | CCn1nc(C)c2c(=O)c(OC)c(-c3c(F)cccc3F)[nH]c21 [Example 234] |  | 25.8 | 70.2 | 
15 | CCn1nc(C)c2c(=O)c(O)c(-c3ccc(NS(C)(=O)=O)cc3F)[nH]c21 [Example 235, N-[4-(1-ethyl-5-hydroxy-3-methyl-4-oxo-4,7-dihydro-1H-pyrazolo[3,4-b]pyridin-6-yl)-3-fluorophenyl]methanesulfonamide] | > 0.15 | 72.9 |  | 
16 | CCn1nc(C)c2c(=O)c(O)c(-c3c(F)cc(NS(C)(=O)=O)cc3F)[nH]c21 [Example 236, N-[4-(1-Ethyl-5-hydroxy-3-methyl-4-oxo-4,7-dihydro-1H-pyrazolo[3,4-b]pyridin-6-yl)-3,5-difluorophenyl]methanesulfonamide] | 0.05 to 0.1 | 84.8 | 87.7 | 
17 | Cn1nc(C(F)(F)F)c2c(=O)c(O)c(-c3ccc(NS(C)(=O)=O)cc3F)[nH]c21 [Example 237, N-{3-Fluoro-4-[5-hydroxy-1-methyl-4-oxo-3-(trifluoromethyl)-4,7-dihydro-1H-pyrazolo[3,4-b]pyridin-6-yl]phenyl}methanesulfonamide] | > 0.15 | 60.9 | 74.3 | 
18 | CCc1nn(CCN2CCOCC2)c2[nH]c(-c3ccccc3Cl)c(O)c(=O)c12 [Example 238, 6-(2-Chlorophenyl)-3-ethyl-5-hydroxy-1-(2-morpholinoethyl)-1H-pyrazolo[3,4-b]pyridin-4(7H)-one hydrochloride] | > 0.15 |  |  | Percentage inhibition at 1.0 μM (hydrochloride): 80.17%; Percentage inhibition at 10.0 μM (hydrochloride, 10 µM): 71.20%
19 | Cc1nn(CCN2CCOCC2)c2[nH]c(-c3cccc(C(F)(F)F)c3F)c(O)c(=O)c12 [Example 239, 6-(2-Fluoro-3-(trifluoromethyl)phenyl)-5-hydroxy-3-methyl-1-(2-morpholinoethyl)-1H-pyrazolo[3,4-b]pyridin-4(7H)-one dihydrochloride] |  |  |  | Percentage inhibition at 1.0 μM (dihydrochloride): 84.59%; Percentage inhibition at 10.0 μM (dihydrochloride, 10 µM): 77.77%
20 | Cc1nn(CCN2CCN(C)CC2)c2[nH]c(-c3ccccc3Cl)c(O)c(=O)c12 [Example 243, 6-(2-Chlorophenyl)-5-hydroxy-3-methyl-1-(2-(4-methylpiperazin-1-yl)ethyl)-1H-pyrazolo[3,4-b]pyridin-4(7H)-one fumarate] | > 0.15 |  |  | 
